Experimental data published in patent US20250222146A1, “Radiopharmaceuticals Targeting Somatostatin Receptor 2 and Uses Thereof” (RayzeBio, Inc., priority 2023, published 2025).
Numbered stars: 1 amine (or outer) side, 2 acyl side, 3 side chain; on linkers, the order of the positions; unused ones are H or OH. Square brackets hold non-standard residues; d marks the D form. Peptide text beside a SMILES is read from it. * marks the point of attachment. DOTA(Lu)NH(CH2)6NHCOCH2 = O=C(CN1CCN2CCN3CCN(CC1)CC(=O)[O][Lu]([O]C(=O)C2)[O]C(=O)C3)NCCCCCCNC(=O)C*; dTrp(βS-Me) = C[C@@H](c1c[nH]c2ccccc12)[C@@H](N)C(=O)O; Phe(3-CONH2) = NC(=O)c1cccc(C[C@H](N)C(=O)O)c1; dTrp(6-F) = N[C@H](Cc1c[nH]c2cc(F)ccc12)C(=O)O; X4 = C[C@@H](c1ccccc1)[C@H](N[*:1])C(=O)[*:2]; Phe(2-CONH2) = NC(=O)c1ccccc1C[C@H](N)C(=O)O; Phe(3R-Me) = C[C@H](c1ccccc1)[C@H](N)C(=O)O; Tyr(3-F) = N[C@@H](Cc1ccc(O)c(F)c1)C(=O)O; X21 = CC(c1ccccc1)[C@H](N[*:1])C(=O)[*:2]; X22 = O=C([C@H](Cc1ccc(O)nc1)N[*:1])[*:2]; 3Pal = N[C@@H](Cc1cccnc1)C(=O)O; 4Pal = N[C@@H](Cc1ccncc1)C(=O)O; NMehCys = CN[C@@H](CCS)C(=O)O

Biological target: SSTR2 (Homo sapiens, UniProt P30874)
Assay: SSTR binding affinity by radioligand binding competition assay ([125I]-Tyr11-Somatostatin, membrane extracts)
Settings: SSTR2 Ki, radioligand competition, [125I]-Tyr11-Somatostatin 0.1 nM, membrane extracts; Ki from IC50 by Cheng Prusoff
Method: Macrocyclic peptides in this invention were tested for binding to SSTR protein by a radioligand binding competition assay. For radioligand binding assay, competition binding is performed in duplicate in the wells of a 96 well plate containing binding buffer (HEPES 25 mM pH 7.4, MgCl2 5 mM, CaCl2 1 mM, BSA 0.5%, Saponine 10 μg/ml)), membrane extracts (0.6 μg protein/well), radiotracer ([125I]-Tyr11-Somatostatin, Perkin Elmer NEX389) and test compound. Nonspecific binding is determined by co-incubation with 200-fold excess of cold competitor (SST28). The samples are incubated in a final volume of 0.1 ml for 60 min at room temperature and then filtered over UniFilter-96 GF/C (Revvity 6055690) filter plates. Filters are washed six times with 0.5 ml of ice-cold washing buffer (HEPES 25 mM pH 7.4, MgCl2 5 mM, CaCl2 1 mM) and 50 μl of Microscint 20 (Packard) are added in each well. The plates are incubated 15 min on an orbital shaker and then counted with a TopCount™ for 1 min/well. For IC50 to Ki determination, the Cheng Prusoff equation is used: Ki=IC50/(1+ [tracer]/Kd). [Tracer] is 0.1 nM as mentioned above.

Sequence of SSTR2 (P30874 whole entry): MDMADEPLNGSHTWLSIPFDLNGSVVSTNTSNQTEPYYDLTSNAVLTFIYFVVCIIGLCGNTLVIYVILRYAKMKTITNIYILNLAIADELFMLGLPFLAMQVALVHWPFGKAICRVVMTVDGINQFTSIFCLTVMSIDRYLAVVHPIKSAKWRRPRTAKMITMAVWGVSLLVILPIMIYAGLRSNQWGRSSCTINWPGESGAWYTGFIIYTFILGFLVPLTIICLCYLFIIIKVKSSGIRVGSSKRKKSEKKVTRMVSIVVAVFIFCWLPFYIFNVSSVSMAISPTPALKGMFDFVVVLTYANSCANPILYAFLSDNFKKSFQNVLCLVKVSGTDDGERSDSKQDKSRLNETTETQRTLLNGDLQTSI

Row | SMILES | Ki [nM]
1 | C[C@@H](O)[C@@H]1NC(=O)[C@H](CCCCN)NC(=O)[C@@H](Cc2c[nH]c3ccccc23)NC(=O)[C@H](Cc2ccc(O)cc2)NC(=O)[C@H](CSCC(=O)NCCCCCCNC(=O)CN2CCN3CCN4CCN(CC2)CC(=O)[O][Lu]([O]C(=O)C3)[O]C(=O)C4)N(C)C(=O)[C@H](Cc2ccccc2)NC1=O [RB-0003164] | 1 to 3.33
2 | C[C@@H](O)[C@@H]1NC(=O)[C@H](CCCCN)NC(=O)[C@@H](Cc2c[nH]c3ccccc23)NC(=O)[C@H](Cc2ccc(O)cc2)NC(=O)[C@H](CCCCNC(=O)[C@H]2CC[C@H](CNC(=O)CN3CCN4CCN5CCN(CC3)CC(=O)[O][Lu]([O]C(=O)C4)[O]C(=O)C5)CC2)N(C)C(=O)[C@H](Cc2ccccc2)NC1=O [RB-0003246] | 1 to 3.33
3 | C[C@@H](O)[C@@H]1NC(=O)[C@H](CCCCN)NC(=O)[C@@H](Cc2c[nH]c3ccccc23)NC(=O)[C@H](Cc2ccc(O)cc2)NC(=O)[C@H](CCCCNC(=O)COCCOCCOCCNC(=O)CN2CCN3CCN4CCN(CC2)CC(=O)[O][Lu]([O]C(=O)C3)[O]C(=O)C4)N(C)C(=O)[C@H](Cc2ccccc2)NC1=O [RB-0003248] | 3.33 to 10
4 | C[C@@H](O)[C@@H]1NC(=O)[C@H](CCCCN)NC(=O)[C@@H](Cc2c[nH]c3ccccc23)NC(=O)[C@H](Cc2ccc(O)cc2)NC(=O)[C@H](CCCCNC(=O)CN2CCN3CCN4CCN(CC2)CC(=O)[O][Lu]([O]C(=O)C3)[O]C(=O)C4)N(C)C(=O)[C@H](Cc2ccccc2)NC1=O [RB-0003292] | < 1
5 | C[C@@H](O)[C@@H]1NC(=O)[C@H](CCCCN)NC(=O)[C@@H](Cc2c[nH]c3ccccc23)NC(=O)[C@H](Cc2ccc(O)cc2)NC(=O)[C@H](CCCCNC(=O)COCCOCCNC(=O)CN2CCN3CCN4CCN(CC2)CC(=O)[O][Lu]([O]C(=O)C3)[O]C(=O)C4)N(C)C(=O)[C@H](Cc2ccccc2)NC1=O [RB-0003294] | 1 to 3.33
6 | C[C@@H](O)[C@@H]1NC(=O)[C@H](CCCCN)NC(=O)[C@@H](Cc2c[nH]c3ccccc23)NC(=O)[C@H](Cc2ccc(O)cc2)NC(=O)[C@H](CCCCNC(=O)CCCCCCCNC(=O)CN2CCN3CCN4CCN(CC2)CC(=O)[O][Lu]([O]C(=O)C3)[O]C(=O)C4)N(C)C(=O)[C@H](Cc2ccccc2)NC1=O [RB-0003296] | 1 to 3.33
7 | C[C@@H](O)[C@@H]1NC(=O)[C@H](CCCCN)NC(=O)[C@@H](Cc2c[nH]c3ccccc23)NC(=O)[C@H](Cc2ccc(O)cc2)NC(=O)[C@H](CCCCNC(=O)CCCCC[C@H](NC(=O)CN2CCN3CCN4CCN(CC2)CC(=O)[O][Lu]([O]C(=O)C3)[O]C(=O)C4)C(=O)O)N(C)C(=O)[C@H](Cc2ccccc2)NC1=O [RB-0003298] | 3.33 to 10

Same assay, conditions: radioligand competition, [125I]-Tyr11-Somatostatin 0.1 nM, membrane extracts; Ki from IC50 by Cheng Prusoff; read-out: SSTR2 Ki

Row | SMILES | Ki [nM]
8 | C[C@H](c1ccccc1)[C@@H]1NC(=O)[C@H](CCSCC(=O)NCCCCCCNC(=O)CN2CCN3CCN4CCN(CC2)CC(=O)[O][Lu]([O]C(=O)C3)[O]C(=O)C4)N(C)C(=O)[C@H](Cc2ccccc2)NC(=O)[C@H]([C@@H](C)O)NC(=O)[C@H](CCCCN)NC(=O)[C@@H](Cc2c[nH]c3ccccc23)NC1=O [RB-0003137] (cyclo(F[NMehCys](DOTA(Lu)NH(CH2)6NHCOCH2)[Phe(3R-Me)][dW]KT)) | < 1
9 | C[C@@H](O)[C@@H]1NC(=O)[C@H](CCCCN)NC(=O)[C@@H]([C@@H](C)c2c[nH]c3ccccc23)NC(=O)[C@H](Cc2ccc(O)cc2)NC(=O)[C@H](CCSCC(=O)NCCCCCCNC(=O)CN2CCN3CCN4CCN(CC2)CC(=O)[O][Lu]([O]C(=O)C3)[O]C(=O)C4)N(C)C(=O)[C@H](Cc2ccccc2)NC1=O [RB-0003148] (cyclo(F[NMehCys](DOTA(Lu)NH(CH2)6NHCOCH2)Y[dTrp(βS-Me)]KT)) | < 1
10 | C[C@@H](O)[C@@H]1NC(=O)[C@H](CCCCN)NC(=O)[C@@H](Cc2c[nH]c3ccccc23)NC(=O)[C@H](Cc2ccc(O)cc2)NC(=O)[C@H](CCSCC(=O)NCCCCCCNC(=O)CN2CCN3CCN4CCN(CC2)CC(=O)[O][Lu]([O]C(=O)C3)[O]C(=O)C4)N(C)C(=O)[C@H](Cc2cccnc2)NC1=O [RB-0003276] (cyclo([3Pal][NMehCys](DOTA(Lu)NH(CH2)6NHCOCH2)Y[dW]KT)) | 3.33 to 10
11 | C[C@@H](O)[C@@H]1NC(=O)[C@H](CCCCN)NC(=O)[C@@H](Cc2c[nH]c3ccccc23)NC(=O)[C@H](Cc2ccc(O)cc2)NC(=O)[C@H](CCSCC(=O)NCCCCCCNC(=O)CN2CCN3CCN4CCN(CC2)CC(=O)[O][Lu]([O]C(=O)C3)[O]C(=O)C4)N(C)C(=O)[C@H](Cc2ccncc2)NC1=O [RB-0003277] (cyclo([4Pal][NMehCys](DOTA(Lu)NH(CH2)6NHCOCH2)Y[dW]KT)) | 1 to 3.33
12 | C[C@@H](O)[C@@H]1NC(=O)[C@H](CCCCN)NC(=O)[C@@H](Cc2c[nH]c3ccccc23)NC(=O)[C@H](Cc2ccc(O)cc2)NC(=O)[C@H](CCSCC(=O)NCCCCCCNC(=O)CN2CCN3CCN4CCN(CC2)CC(=O)[O][Lu]([O]C(=O)C3)[O]C(=O)C4)N(C)C(=O)[C@H]([C@@H](C)c2ccccc2)NC1=O [RB-0003278] (cyclo(KT[X4][NMehCys](DOTA(Lu)NH(CH2)6NHCOCH2)Y[dW])) | 1 to 3.33
13 | C[C@@H](O)[C@@H]1NC(=O)[C@H](CCCCN)NC(=O)[C@@H](Cc2c[nH]c3ccccc23)NC(=O)[C@H](Cc2ccc(O)cc2)NC(=O)[C@H](CCSCC(=O)NCCCCCCNC(=O)CN2CCN3CCN4CCN(CC2)CC(=O)[O][Lu]([O]C(=O)C3)[O]C(=O)C4)N(C)C(=O)[C@H](Cc2ccc(O)nc2)NC1=O [RB-0003279] (cyclo(KT[X22][NMehCys](DOTA(Lu)NH(CH2)6NHCOCH2)Y[dW])) | 3.33 to 10
14 | C[C@@H](O)[C@@H]1NC(=O)[C@H](CCCCN)NC(=O)[C@@H](Cc2c[nH]c3ccccc23)NC(=O)[C@H](Cc2ccc(O)c(F)c2)NC(=O)[C@H](CCSCC(=O)NCCCCCCNC(=O)CN2CCN3CCN4CCN(CC2)CC(=O)[O][Lu]([O]C(=O)C3)[O]C(=O)C4)N(C)C(=O)[C@H](Cc2ccccc2)NC1=O [RB-0003280] (cyclo(F[NMehCys](DOTA(Lu)NH(CH2)6NHCOCH2)[Tyr(3-F)][dW]KT)) | < 1
15 | CC(c1ccccc1)[C@@H]1NC(=O)[C@H]([C@@H](C)O)NC(=O)[C@H](CCCCN)NC(=O)[C@@H](Cc2c[nH]c3ccccc23)NC(=O)[C@H](Cc2ccc(O)cc2)NC(=O)[C@H](CCSCC(=O)NCCCCCCNC(=O)CN2CCN3CCN4CCN(CC2)CC(=O)[O][Lu]([O]C(=O)C3)[O]C(=O)C4)N(C)C1=O (stereo partly drawn) [RB-0003281] (cyclo(KT[X21][NMehCys](DOTA(Lu)NH(CH2)6NHCOCH2)Y[dW])) | 3.33 to 10
16 | C[C@@H](O)[C@@H]1NC(=O)[C@H](CCCCN)NC(=O)[C@@H](Cc2c[nH]c3ccccc23)NC(=O)[C@H](Cc2cccc(C(N)=O)c2)NC(=O)[C@H](CCSCC(=O)NCCCCCCNC(=O)CN2CCN3CCN4CCN(CC2)CC(=O)[O][Lu]([O]C(=O)C3)[O]C(=O)C4)N(C)C(=O)[C@H](Cc2ccccc2)NC1=O [RB-0003302] (cyclo(F[NMehCys](DOTA(Lu)NH(CH2)6NHCOCH2)[Phe(3-CONH2)][dW]KT)) | 3.33 to 10
17 | C[C@@H](O)[C@@H]1NC(=O)[C@H](CCCCN)NC(=O)[C@@H](Cc2c[nH]c3ccccc23)NC(=O)[C@H](Cc2ccccc2C(N)=O)NC(=O)[C@H](CCSCC(=O)NCCCCCCNC(=O)CN2CCN3CCN4CCN(CC2)CC(=O)[O][Lu]([O]C(=O)C3)[O]C(=O)C4)N(C)C(=O)[C@H](Cc2ccccc2)NC1=O [RB-0003304] (cyclo(F[NMehCys](DOTA(Lu)NH(CH2)6NHCOCH2)[Phe(2-CONH2)][dW]KT)) | 3.33 to 10
18 | C[C@@H](O)[C@@H]1NC(=O)[C@H](CCCCN)NC(=O)[C@@H](Cc2c[nH]c3ccccc23)NC(=O)[C@H](Cc2ccc(O)cc2)NC(=O)[C@H](CCSCC(=O)NCCCCCCNC(=O)CN2CCN3CCN4CCN(CC2)CC(=O)[O][Lu]([O]C(=O)C3)[O]C(=O)C4)N(C)C(=O)[C@H](Cc2cccc(C(N)=O)c2)NC1=O [RB-0003306] (cyclo(KT[Phe(3-CONH2)][NMehCys](DOTA(Lu)NH(CH2)6NHCOCH2)Y[dW])) | 1 to 3.33
19 | C[C@@H](O)[C@@H]1NC(=O)[C@H](CCCCN)NC(=O)[C@@H](Cc2c[nH]c3cc(F)ccc23)NC(=O)[C@H](Cc2ccc(O)cc2)NC(=O)[C@H](CCSCC(=O)NCCCCCCNC(=O)CN2CCN3CCN4CCN(CC2)CC(=O)[O][Lu]([O]C(=O)C3)[O]C(=O)C4)N(C)C(=O)[C@H](Cc2ccccc2)NC1=O [RB-0003309] (cyclo(F[NMehCys](DOTA(Lu)NH(CH2)6NHCOCH2)Y[dTrp(6-F)]KT)) | < 1
20 | C[C@H](O)[C@@H]1NC(=O)[C@H](CCCCN)NC(=O)[C@@H](Cc2c[nH]c3ccccc23)NC(=O)[C@H](Cc2ccc(O)cc2)NC(=O)[C@H](CCSCC(=O)NCCOCCOCCOCCNC(=O)CN2CCN3CCN4CCN(CC2)CC(=O)[O][Lu]([O]C(=O)C3)[O]C(=O)C4)N(C)C(=O)[C@H](Cc2ccccc2)NC1=O [RB-0003357] | < 1
21 | C[C@@H](O)[C@@H]1NC(=O)[C@H](CCCCN)NC(=O)[C@@H](Cc2c[nH]c3ccccc23)NC(=O)[C@H](Cc2ccc(O)cc2)NC(=O)[C@H](CCSCCC(=O)NCCCCCCNC(=O)CN2CCN3CCN4CCN(CC2)CC(=O)[O][Lu]([O]C(=O)C3)[O]C(=O)C4)N(C)C(=O)[C@H](Cc2ccccc2)NC1=O [RB-0003374] | < 1
